In patent US5462933A, “Modified bile acid conjugates, and their use as pharmaceuticals” (Hoechst Aktiengesellschaft, priority 1989, dated 1995):

How the values were obtained:
[1] = In vivo perfused liver: absorption from portal vein blood and excretion into the bile; set-up: species or system rat; details: after W (Chlorambucil) into mesenteric vein
Description: In order to investigate a selective absorption of bile acid derivatives into the liver and their hepatotropic action, the appropriate derivatives were injected as a bolus into a mesenteric vein of anesthetized rats and the excretion of these derivatives and the corresponding active compounds or active compound metabolites into the bile was analysed.
Male Sprague-Dawley rats (300-500 g bodyweight) had their food withdrawn and received water ad libitum. After tracheotomy, the abdomen was opened by median section under urethane anesthesia ([…] i.m. urethane 30%). The pylorus was ligated and the bile duct was cannulated by advancing a polyethylene tube (d=0.05 mm) up to the liver and the bile was drained. The volume of secretion was measured at 15 minute intervals. After a preliminary period of 60 minutes, the substances (0.5 ml of a 1 mM solution in 0.9% NaCl solution) were administered into a mesenteric vein in the course of 30 sec and the bile was collected at prestated time intervals (2, 4, 6, 8, 10, 15, 20, 30, 40, 50, 60, 70, 80, 90, 100, 110 and 120 min). The bile acid derivative was administered first, and the appropriate active compound was administered after a collection period of 2 hours. 120 min after administration of test substance, the bladder volume was measured and the urine was also collected. The bile and urine samples were stored on ice during the experiment and then deep-frozen.
Each 10 μl bile sample was applied to TLC plates (10×20 cm, silica gel 60 specific layer thickness 0.25 mm, No. 37581 Riedel de Haen, Seelze, Federal Republic of Germany) using Microcaps (Drummond, Broomall, USA) and the thin-layer plates were dried in the air for 20 min.
The plates were developed in the following mobile phases: Substance Mobile phase
The constituents of the mobile phases were bought from the usual manufacturers in the highest possible purity grade. After developing and drying the plates, the distribution of the active compounds and the bile acid derivatives, or their metabolites, was determined by densitometry (CD 50 densitometer, DESAGA; Heidelberg). Detection was carried out in reflection mode with linear sampling at the wavelengths 252 nm (chlorambucil/chlorambucil conjugate) or 260 nm (remaining substances).
In order to evaluate the chromatograms, the relative intensity of the bile acid derivatives, the active compounds or the active compound metabolites on a chromatogram was given in surface area units.

[2] = target: T1, Na+-dependent bile acid transport system (Oryctolagus cuniculus, UniProt Q28727); experiment: Inhibition of Na+-dependent [3H]taurocholate absorption into brush-border membrane vesicles of the ileum; format: biochemical, rabbit
T1 construct: brush-border membrane vesicles from the ileum of rabbits; from tissue; host or cells: terminal ileum of male New Zealand rabbits, brush-border membrane vesicles
T1 sequence (Q28727 1-347): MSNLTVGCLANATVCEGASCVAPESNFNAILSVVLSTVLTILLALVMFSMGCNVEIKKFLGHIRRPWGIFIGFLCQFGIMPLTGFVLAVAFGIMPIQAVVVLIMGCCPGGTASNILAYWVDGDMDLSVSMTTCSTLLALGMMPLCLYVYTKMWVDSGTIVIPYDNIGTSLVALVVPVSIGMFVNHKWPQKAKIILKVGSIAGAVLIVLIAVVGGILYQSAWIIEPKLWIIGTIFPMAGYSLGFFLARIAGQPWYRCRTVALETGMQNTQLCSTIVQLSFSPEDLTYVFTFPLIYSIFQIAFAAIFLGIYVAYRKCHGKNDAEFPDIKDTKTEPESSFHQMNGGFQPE
Description: The preparation of brush-border membrane vesicles from the intestinal cells of the small intestine was carried out using the so-called Mg^2+ precipitation method. Male New Zealand rabbits (2-2.5 kg body weight) were sacrificed by intravenous injection of 0.5 ml of T-61^R. The small intestine was removed and rinsed with ice-cold physiological saline solution. The terminal 3/10 of the small intestine (measured in the oral-rectal direction, i.e. the terminal ileum, which contains the active Na^+ -dependent bile acid transport system) were used for preparation of the brush-border membrane vesicles. The intestines were frozen at -80° C. under nitrogen in plastic bags. The frozen intestines were thawed in a water bath at 30° C. in order to prepare the membrane vesicles. The mucosa was scraped off and suspended in 60 ml of ice-cold 12 mM trys/HCl buffer (pH 7.1)/300 mM mannitol, 5 mM EGTA/10 mg/l of phenylmethylsulfonyl fluoride/1 mg/l of soybean trypsin inhibitor (32 U/mg)/0.5 mg/l of bovine lung trypsin inhibitor (193 U/mg)/5 mg/l of bacitracin. After diluting to 300 ml with ice-cold distilled water, the suspension was homogenized with ice-cooling for 3 minutes at 75% of maximum power using an Ultraturrax (18 rod, IKA Werk Staufen, Federal Republic of Germany). After addition of 3 ml of 1M MgCl2 solution (final concentration 10 mM), the homogenate was allowed to stand at 0° C. for exactly 1 minute. As a result of addition of Mg^2+, the cell membranes aggregate and precipitate with the exception of the brush-border membranes. After centrifugation at 3,000×g (5,000 rpm, SS-34 rotor) for 15 minutes, the precipitate is discarded and the supernatant which contains the brush-border membranes is centrifuged at 26,700×g (15,000 rpm, SS-34 rotor) for 30 minutes. The supernatant was discarded, and the precipitate was rehomogenized in 60 ml of 12 mM tris/HCl buffer (pH 7.1)/60 mM mannitol, 5 mM EGTA using a Potter Elvejhem homogenizer (Braun Melsungen, 900 rpm, 10 strokes). After addition of 0.1 ml of 1M MgCl2 solution and an incubation time of 15 minutes at 0° C., the mixture was again centrifuged at 3,000×g for 15 minutes. The supernatant was then again centrifuged at […] (15,000 rpm, SS-34 rotor) for 30 minutes. The precipitate was taken up in 30 ml of 10 mM tris/hepes buffer (pH 7.4)/300 mM mannitol and homogeneously resuspended by 20 strokes in a Potter Elvejhem homogenizer at 1,000 rpm. After centrifugation at 48,000×g (20,000 rpm, SS-34 rotor) for 30 minutes, the precipitate was taken up in 0.5 to 2 ml of tris/hepes buffer (pH 7.4)/280 mM mannitol (final concentration 20 mg/ml) and resuspended with the aid of a tuberculin syringe using a 27 gauge needle. The vesicles were either used immediately after preparation for transport investigations or stored at -196° C. in liquid nitrogen in 4 mg portions.
The absorption of substrates into brush-border membrane vesicles was determined by means of the so-called membrane filtration technique. 10 μl of the vesicle suspension (100 μg of protein) were pipetted on the wall of a polystyrene incubation tube (11×70 mm) as a drop which contained the incubation medium together with the corresponding ligands (90 μl ). […] The incubation medium was filtered through a polyvinylidene fluoride membrane filter (SYHV LO 4NS, 0.45 μm, 4 mm .phi., Millipore, Eschborn, Federal Republic of Germany). The transport measurement was begun by mixing the vesicles with the incubation medium. […] After the desired incubation time (customarily 1 min), the transport was stopped by addition of 1 ml of ice-cold stop solution (10 mM tris/hepes, (pH 7.4)/150 mM KCl). The resulting mixture was immediately filtered off with suction in a vacuum of 25 to 35 mbar through a membrane filter made of cellulose nitrate (ME 25, 0.45 μm, 25 mm diameter, Schleicher & Schuell, Dassell, Federal Republic of Germany). The filter was subsequently washed with 5 ml of ice-cold Stop solution.

Question: What does the source list for `O=C(O)CCCc1ccc(N(CCCl)CCCl)cc1` [Chlorambucil, [4-(bis-N-(2'-chloroethyl)-aminophenyl)]-butyric acid, reference compound]?
Answer: Conc. of W or a metabolite of W in bile ([1]; bile at 2 min): 1012 surface area units; Conc. of W or a metabolite of W in bile ([1]; bile at 4 min): 885 surface area units; Conc. of W or a metabolite of W in bile ([1]; bile at 6 min): 1044 surface area units; Conc. of W or a metabolite of W in bile ([1]; bile at 8 min): 1160 surface area units; Conc. of W or a metabolite of W in bile ([1]; bile at 10 min): 810 surface area units; Conc. of W or a metabolite of W in bile ([1]; bile at 15 min): 689 surface area units; Conc. of W or a metabolite of W in bile ([1]; bile at 20 min): 1481 surface area units; Conc. of W or a metabolite of W in bile ([1]; bile at 30 min): 704 surface area units; Conc. of W or a metabolite of W in bile ([1]; bile at 40 min): 511 surface area units; Conc. of W or a metabolite of W in bile ([1]; bile at 60 min): 620 surface area units; Conc. of W or a metabolite of W in bile ([1]; bile at 70 min): 1769 surface area units; Conc. of W or a metabolite of W in bile ([1]; bile at 80 min): 501 surface area units; Conc. of W or a metabolite of W in bile ([1]; bile at 90 min): 813 surface area units; Conc. of W or a metabolite of W in bile ([1]; bile at 100 min): 523 surface area units; Conc. of W or a metabolite of W in bile ([1]; bile at 110 min): 604 surface area units; Conc. of W or a metabolite of W in bile ([1]; bile at 120 min): 531 surface area units

Question: What does the source list for `CC(C)c1nc(-c2ccccc2)cc(-c2ccc(F)cc2)c1/C=C/[C@@H](O)C[C@@H](O)CC(=O)NCCCO[C@H]1CC[C@@]2(C)[C@@H](C1)C[C@@H](O)[C@@H]1[C@@H]2C[C@H](O)[C@]2(C)[C@@H]([C@H](C)CCC(=O)O)CC[C@@H]12` [Example 86]?
Answer: IC25 [2]: 14 µM; IC75 [2]: 87 µM; IC50 ([2]; read-out: IC50): 62 µM
